Measurements from the supplement of paper PMC13207355.

Tests used:
Conditions in all cases: exposure time: 72 h
E13 [1] = patient-derived glioblastoma stem cells of classical subtype; experiment: surviving fraction (nuclei count normalised to DMSO); higher = more cells surviving (less toxic)
E21 [2] = patient-derived glioblastoma stem cells of mesenchymal subtype; experiment: as above
E28 [3] = patient-derived glioblastoma stem cells of classical subtype; experiment: as above
E31 [4] = patient-derived glioblastoma stem cells of proneural subtype; experiment: as above
E34 [5] = patient-derived glioblastoma stem cells of proneural subtype; experiment: as above
E57 [6] = patient-derived glioblastoma stem cells of mesenchymal subtype; experiment: as above
FT3469 [7] = normal neural stem cell line; experiment: as above
E13 [8] = experiment: phenotypic distance (Euclidean, principal components) from DMSO controls (arbitrary units); higher = stronger morphological change
E21 [9] = experiment: as above
E28 [10] = experiment: as above
E31 [11] = experiment: as above
E34 [12] = experiment: as above
E57 [13] = experiment: as above
FT3469 [14] = experiment: as above
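Throughout, for phenotypic distance (Euclidean, principal components) from DMSO controls: cell Painting imaging in 384-well plates, CellProfiler features reduced to at least 20 principal components, Euclidean distance versus same-plate DMSO vehicle wells (0.1% v/v), median over six images per well.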
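Throughout, for surviving fraction (nuclei count normalised to DMSO): nuclei counted by high-content imaging of Hoechst-stained cells in laminin-coated 384-well plates, relative to 0.1% DMSO vehicle wells, with staurosporine as cell-death control.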

Nc1ncn([C@@H]2O[C@H](CO)[C@@H](O)[C@H]2O)c(=O)n1 [5-azacytidine]
Conditions | phenotypic distance | surviving fraction
E13 [1], 4.11523 nM | – | 0.808
E13 [1], 12.34567901 nM | – | 0.874
E13 [1], 37.037 nM | – | 0.939
E13 [1], 111.1111111 nM | – | 0.778
E13 [1], 333.333 nM | – | 0.755
E13 [1], 1000 nM | – | 0.67
E13 [1], 3000 nM | – | 0.358
E13 [8], 4.11523 nM | 0.922 | –
E13 [8], 12.34567901 nM | 0.542 | –
E13 [8], 37.037 nM | 0.817 | –
E13 [8], 111.1111111 nM | 1.58 | –
E13 [8], 333.333 nM | 1.47 | –
E13 [8], 1000 nM | 3 | –
E13 [8], 3000 nM | 6.57 | –
E21 [2], 4.11523 nM | – | 0.745
E21 [2], 12.34567901 nM | – | 0.93
E21 [2], 37.037 nM | – | 0.921
E21 [2], 111.1111111 nM | – | 0.871
E21 [2], 333.333 nM | – | 0.665
E21 [2], 1000 nM | – | 0.6
E21 [2], 3000 nM | – | 0.426
E21 [9], 4.11523 nM | 1.24 | –
E21 [9], 12.34567901 nM | 5.31 | –
E21 [9], 37.037 nM | 1.2 | –
E21 [9], 111.1111111 nM | 1.66 | –
E21 [9], 333.333 nM | 1.85 | –
E21 [9], 1000 nM | 2.19 | –
E21 [9], 3000 nM | 3.53 | –
E28 [3], 4.11523 nM | – | 0.899
E28 [3], 12.34567901 nM | – | 1.22
E28 [3], 37.037 nM | – | 0.711
E28 [3], 111.1111111 nM | – | 0.969
E28 [3], 333.333 nM | – | 0.753
E28 [3], 1000 nM | – | 0.984
E28 [3], 3000 nM | – | 0.497
E28 [10], 4.11523 nM | 0.861 | –
E28 [10], 12.34567901 nM | 1.19 | –
E28 [10], 37.037 nM | 1.09 | –
E28 [10], 111.1111111 nM | 0.941 | –
E28 [10], 333.333 nM | 0.932 | –
E28 [10], 1000 nM | 1.03 | –
E28 [10], 3000 nM | 1.84 | –
E31 [4], 4.11523 nM | – | 0.945
E31 [4], 12.34567901 nM | – | 0.84
E31 [4], 37.037 nM | – | 0.848
E31 [4], 111.1111111 nM | – | 0.9
E31 [4], 333.333 nM | – | 0.718
E31 [4], 1000 nM | – | 0.644
E31 [4], 3000 nM | – | 0.298
E31 [11], 4.11523 nM | 1.21 | –
E31 [11], 12.34567901 nM | 1.33 | –
E31 [11], 37.037 nM | 1.03 | –
E31 [11], 111.1111111 nM | 0.932 | –
E31 [11], 333.333 nM | 1.18 | –
E31 [11], 1000 nM | 1.85 | –
E31 [11], 3000 nM | 3.43 | –
E34 [5], 4.11523 nM | – | 0.97
E34 [5], 12.34567901 nM | – | 1.02
E34 [5], 37.037 nM | – | 1.01
E34 [5], 111.1111111 nM | – | 1.07
E34 [5], 333.333 nM | – | 0.862
E34 [5], 1000 nM | – | 0.731
E34 [5], 3000 nM | – | 0.643
E34 [12], 4.11523 nM | 0.558 | –
E34 [12], 12.34567901 nM | 0.75 | –
E34 [12], 37.037 nM | 1.12 | –
E34 [12], 111.1111111 nM | 0.943 | –
E34 [12], 333.333 nM | 1.52 | –
E34 [12], 1000 nM | 1.39 | –
E34 [12], 3000 nM | 2.19 | –
E57 [6], 4.11523 nM | – | 0.959
E57 [6], 12.34567901 nM | – | 0.904
E57 [6], 37.037 nM | – | 0.961
E57 [6], 111.1111111 nM | – | 0.841
E57 [6], 333.333 nM | – | 0.78
E57 [6], 1000 nM | – | 0.507
E57 [6], 3000 nM | – | 0.287
E57 [13], 4.11523 nM | 0.981 | –
E57 [13], 12.34567901 nM | 1.07 | –
E57 [13], 37.037 nM | 1.13 | –
E57 [13], 111.1111111 nM | 1.59 | –
E57 [13], 333.333 nM | 1.59 | –
E57 [13], 1000 nM | 3.31 | –
E57 [13], 3000 nM | 5.71 | –
FT3469 [7], 4.11523 nM | – | 0.82
FT3469 [7], 12.34567901 nM | – | 0.768
FT3469 [7], 37.037 nM | – | 0.86
FT3469 [7], 111.1111111 nM | – | 0.944
FT3469 [7], 333.333 nM | – | 0.915
FT3469 [7], 1000 nM | – | 0.734
FT3469 [7], 3000 nM | – | 0.665
FT3469 [14], 4.11523 nM | 1.08 | –
FT3469 [14], 12.34567901 nM | 1.06 | –
FT3469 [14], 37.037 nM | 0.921 | –
FT3469 [14], 111.1111111 nM | 0.795 | –
FT3469 [14], 333.333 nM | 0.957 | –
FT3469 [14], 1000 nM | 1.34 | –
FT3469 [14], 3000 nM | 2.03 | –
